# Data reported in patent US20130064815A1, “INDUCING APOPTOSIS IN QUIESCENT CELLS” (THE TRUSTEES OF PRINCETON UNIVERSITY, priority 2011, published 2013).
# What was measured:
# [1] = system: P and CI14 fibroblasts; assay: PPP inhibition and PI live/dead analysis by flow cytometry; type: cell-based, human; details: CI14 vs proliferating fibroblasts; 100 μM and 250 μM, four days; p<0.01
# Protocol: The function of the PPP in quiescent and proliferating fibroblasts was tested. Proliferating or CI14 fibroblasts were incubated with DHEA, a small molecule inhibitor of the PPP for four days. The fraction of cells that were dead was monitored with propidium iodide (PI) labeling followed by flow cytometry.
# PPP inhibition and PI live/dead analysis: P and CI14 fibroblasts were treated with dehydroepiandrosterone dissolved in ethanol or dimethylsufoxide (0.1% vol/vol) for four days. On the fourth day of treatment with the inhibitor, cells were trypsinized and collected into conditioned media. Cells were then centrifuged for 5 min at 1000 rpm. The supernatant was aspirated and cells were taken up in PBS with 1 μg/ml PI (VWR, West Chester, Pa.). Cells were kept on ice and immediately analyzed by flow cytometry using a BD LSRII multi-laser analyzer (BD Biosciences, San Jose, Calif.). PI was excited at 488 nm and emitted fluorescence was collected through a 610/20 bandpass filter. At least 40,000 cells were collected and analyzed with FACSDiVa software (BD Biosciences, San Jose, Calif.). PI negative cells were counted as live cells and PI positive cells were counted as dead cells.
# [2] = system: intracellular reduced glutathione; assay: intracellular reduced glutathione by monochlorobimane flow cytometry; type: cell-based, human; details: serum-starved fibroblasts after DHEA treatment
# Protocol: It was tested whether the increase in glutathione reductase activity in serum-starved fibroblasts was associated with elevated levels of reduced glutathione. 7 dSS fibroblasts were focused on because they had the highest activity of the four enzymes in the NADPH production pathway. Flow cytometry was used to monitor the levels of glutathione in proliferating and 7 dSS fibroblasts with monochlorobimane (MCB), a compound that forms blue fluorescent adducts when it reacts with intracellular reduced glutathione (Sebastia et al., “Evaluation of fluorescent dyes for measuring intracellular glutathione content in primary cultures of human neurons and beuroblastoma SH-SY5Y, Cytometry A 51, 16-25, 2003, which is incorporated herein by reference as if fully set forth). […] The results are consistent with a model in which the NADPH production program activated in the serum-starved fibroblasts contributes to a larger pool of reduced glutathione.
# It was expected that the reduction in NADPH levels that resulted from DHEA treatment would result in lower activity of glutathione reductase and thus a decrease in the levels of reduced glutathione. […] The depletion of glutathione in response to DHEA could be an important part of the apoptotic pathway. […]
# [3] = system: extracellular glutathione; assay: glutathione in conditioned medium by mass spectrometry; type: cell-based, human; details: 7 dSS fibroblasts; DHEA vs DMSO control
# From the text: It was expected that the reduction in NADPH levels that resulted from DHEA treatment would result in lower activity of glutathione reductase and thus a decrease in the levels of reduced glutathione. […] The depletion of glutathione in response to DHEA could be an important part of the apoptotic pathway. Alternatively, because apoptosing cells can rapidly and selectively release glutathione to the extracellular environment (van den Dobbelsteen et al., 1996, “Rapid and specific efflux of reduced glutathione during apoptosis induced by anti-Fas/APO-1 antibody,” J Biol Chem 271, 15240-15427; Franco et al., “Glutathione depletion is necessary for apoptosis in lymphoid cells independent of reactive oxygen species,” J Biol Chem 282, 30452-30465, 2007, which are incorporated herein by reference as if fully set forth), the depletion of glutathione could represent a response to a distinct apoptotic trigger. Mass spectrometry was used to measure glutathione levels in conditioned medium from 7 dSS fibroblasts treated with DMSO as a control or with DHEA. There was no increase in extracellular glutathione in conditioned medium from DHEA-treated fibroblasts compared with controls; in fact, levels were lower, consistent with a DHEA-induced reduction in intracellular levels of reduced glutathione. […]
# [4] = system: tumor cells; details: intraperitoneal injection of tumor cells; cited from earlier work
# [5] = target: T1, G6PD (Homo sapiens, UniProt P11413); assay: G6PD activity in fibroblasts treated with DHEA; type: cell-based
# T1 construct: endogenous in cells; host or cells: primary human foreskin fibroblasts (proliferating or serum-starved)
# From the text: Referring to FIGS. 18A and 18B, NADPH production is induced in quiescent fibroblasts. G6PD, PGD and IDH1 are expressed at low levels in proliferating fibroblasts, at higher levels in 7 dCI, 14 dCI and 14 dCI7 dSS fibroblasts, and at even higher levels in 4 dSS and 7 dSS fibroblasts (FIGS. 18A and 18B). Malic enzyme, another protein that generates NADPH but was not predicted to be differentially active in proliferating versus quiescent fibroblasts, was expressed at similar levels in cells in all conditions. The activity of the NADPH-producing enzymes in cytosolic or mitochondrial lysates collected from cells in different proliferative conditions is shown in FIG. 18A. Immunoblotting confirmed successful separation of mitochondrial and cytosolic proteins. Lysates were incubated with the appropriate substrate and the rate of enzymatic activity was determined based on the appearance or disappearance of NADH or NADPH. G6PD had the highest specific activity among the enzymes monitored, consistent with previous reports that it is the most important contributor to NAPDH levels. […] Thus NADPH-generating enzymes in the pentose-phosphate pathway are activated in serum-starved fibroblasts. […]
# [6] = system: colon cancer; details: in vivo; cited from earlier work
# [7] = system: skin papillomas and carcinomas; details: topical 7,12-dimethylbenz(a)anthracene (DMBA), mice; cited from earlier work
# [8] = system: thyroid tumors; details: F344 rats treated with DHPN, then DHEA; cited from earlier work
# T1 sequence (P11413 whole entry): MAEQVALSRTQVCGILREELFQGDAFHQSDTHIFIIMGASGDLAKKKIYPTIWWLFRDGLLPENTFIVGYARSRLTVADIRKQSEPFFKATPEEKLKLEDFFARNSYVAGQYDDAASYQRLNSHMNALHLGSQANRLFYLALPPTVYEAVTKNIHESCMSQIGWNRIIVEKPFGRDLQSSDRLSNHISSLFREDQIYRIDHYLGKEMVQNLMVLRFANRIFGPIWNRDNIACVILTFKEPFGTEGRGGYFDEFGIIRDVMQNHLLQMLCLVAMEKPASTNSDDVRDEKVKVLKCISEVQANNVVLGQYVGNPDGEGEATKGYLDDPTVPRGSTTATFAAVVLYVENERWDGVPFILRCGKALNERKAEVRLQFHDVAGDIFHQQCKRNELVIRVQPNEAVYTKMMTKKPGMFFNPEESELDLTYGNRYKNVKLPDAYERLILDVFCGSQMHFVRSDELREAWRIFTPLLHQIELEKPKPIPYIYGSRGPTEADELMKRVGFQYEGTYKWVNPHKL
structure (smiles),measurement,setting,value
"C[C@]12CC[C@H](O)CC1=CC[C@@H]1[C@@H]2CC[C@]2(C)C(=O)CC[C@@H]12 [DHEA, dehydroepiandrosterone]",cell death (PI labeling),[1],statistically significant increase in cell death
same,intracellular GSH pools,[2],smaller pools of intracellular GSH
same,extracellular glutathione in conditioned medium,[3],no increase
same,tumor growth,[4],inhibit tumor growth
same,G6PD activity,[5]; proliferating cells treated with DHEA,declined
same,G6PD activity,[5]; serum-starved fibroblasts treated with DHEA,significantly declined
same,effect on colon cancer,[6],chemopreventative effect
same,development of skin papillomas and carcinomas,[7],reduced
same,basophilic hepatocellular foci,[8],associated with development of basophilic hepatocellular foci
same,development of thyroid tumors,[8],decreased development of thyroid tumors
